Results reported in US6825232B2, “Use of hydroxyeicosatetraenoic acid compounds to treat ophthalmic inflammatory disorders” (Alcon, Inc., priority 2002, dated 2004).
Marks after values point to notes of the source that are not given here.

Tests used:
IL-8 = conditions: 1 μM to 0.1 nM; human bone marrow stromal cells; cited from earlier work
IL-6 [1] = conditions: bone marrow stromal cells; cited from earlier work
IL-6 [2] = assay: IL-6 release from IL-1β-stimulated primary human corneal fibroblast cells (ELISA); assay type: cell-based; conditions: for % Inhibition of IL-6 (pg/μg dsDNA): 30 min pretreatment, 10 ng/ml IL-1β for 3 hours, normalized to dsDNA
Procedure: Primary human corneal fibroblast cells were obtained from one donor and grown to confluence in Ham's F-10 medium. Fibroblasts were transferred to serum-free media and were pretreated for 30 minutes with various concentrations of 15(S)-HETE. The cells were then stimulated with 10 ng/ml IL-1β for 3 hours and aliquots of the supernatants were assayed for IL-6 by ELISA. Data were normalized by the amount of double stranded DNA (dsDNA) extracted from the cells.

CCCCC[C@H](O)/C=C/C=C\C/C=C\C/C=C\CCCC(=O)O [15(S)-HETE, 15-Hydroxyeicosatetraenoic acid]
effect on the spontaneous and serum-induced production of IL-8 (IL-8): no effect | effect on the spontaneous, serum- and cytokine-induced IL-6 synthesis (IL-6 [1]): no effect | % Inhibition of IL-6 (pg/μg dsDNA) (IL-6 [2]; 15(S)-HETE 0.5 μg): 53.1% | % Inhibition of IL-6 (pg/μg dsDNA) (IL-6 [2]; 15(S)-HETE 1 μg): 67.9* % | % Inhibition of IL-6 (pg/μg dsDNA) (IL-6 [2]; 15(S)-HETE 2 μg): 88.6** % | % Inhibition of IL-6 (pg/μg dsDNA) (IL-6 [2]; 15(S)-HETE 3 μg): 90.4** % | IC50 (IL-6 [2]; primary human corneal fibroblast cells, IL-1β stimulated, read-out: IC50 for IL-6 inhibition): < 500 nM
